Laboratory results reported in patent US20240043427A1 (Gilead Sciences, Inc., priority 2020, published 2024).

Experiments:
CD73 [1] = target: T1, CD73 (Homo sapiens (Human), UniProt P21589); assay type: biochemical; settings: 1 mM NaH2PO4 in enzyme buffer, CD73 0.3 nM, AMP 15 uM
Method: Compound serial dilutions were pre-spotted into Thermo Nunc assay plate. 50 uL CD73 enzyme buffer (CD73 purchased from R&D system=0.6 nM, 25 mM Tris, pH 7.4, 5 mM MgCl2, 1 mM NaH2PO4) was added into the assay plate and incubate for 15 mins. […] After incubation for 60 mins, the supernatant (20 uL) was transferred into 384-well NUNC plate pre-filled with 60 uL Quench buffer (80% organic and 20% water+0.1% FA) with internal standard. The plate was spun down at 4500 rpm for 20 mins, then 20 uL of supernatant was transferred to another Nunc plate prefilled with 80 uL of water. The samples were analyzed using Rapid fire.

CD73 [2] = target: T1, CD73; test: MDA-MB-231 Cell Based CD73 Activity Assay (DMEM); settings: MDA-MB-231-GFP cells, DMEM medium with 10% human plasma, 200 uM AMP

T1 sequence (P21589 27-574): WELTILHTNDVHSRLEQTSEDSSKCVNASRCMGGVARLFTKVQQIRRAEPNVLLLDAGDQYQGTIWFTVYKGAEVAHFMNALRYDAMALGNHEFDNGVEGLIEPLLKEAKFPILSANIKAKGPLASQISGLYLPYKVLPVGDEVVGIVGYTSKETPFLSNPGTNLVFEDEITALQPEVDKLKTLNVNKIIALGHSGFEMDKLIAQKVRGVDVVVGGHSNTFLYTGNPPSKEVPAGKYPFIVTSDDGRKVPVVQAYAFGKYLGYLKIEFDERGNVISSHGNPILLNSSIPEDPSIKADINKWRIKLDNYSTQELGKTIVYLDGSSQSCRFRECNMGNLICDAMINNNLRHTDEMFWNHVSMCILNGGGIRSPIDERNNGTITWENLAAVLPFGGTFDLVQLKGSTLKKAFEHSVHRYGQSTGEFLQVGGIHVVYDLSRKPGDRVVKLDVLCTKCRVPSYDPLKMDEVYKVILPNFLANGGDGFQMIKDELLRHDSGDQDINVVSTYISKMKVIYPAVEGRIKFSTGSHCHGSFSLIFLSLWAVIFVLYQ

Row | IC50 (CD73 [1]) | EC50 (CD73 [2]) | Compound
1 | 12.4 nM | 50.8 nM | O=c1[nH]cc(-c2cc(N3C[C@@H](Oc4ccc(C(F)(F)F)cn4)C(F)(F)C3)c3nccn3n2)c(=O)[nH]1 [Example 530, (R)-5-(8-(3,3-difluoro-4-((5-(trifluoromethyl)pyridin-2-yl)oxy)pyrrolidin-1-yl)imidazo[1,2-b]pyridazin-6-yl)pyrimidine-2,4(1H,3H)-dione]
2 | 1.34 nM | 11.4 nM | O=c1[nH]cc(-c2cc(N3C[C@H](Oc4ncc(C(F)(F)F)cn4)C(F)(F)C3)c3nccn3n2)c(=O)[nH]1 [Example 531, (S)-5-(8-(3,3-difluoro-4-((5-(trifluoromethyl)pyrimidin-2-yl)oxy)pyrrolidin-1-yl)imidazo[1,2-b]pyridazin-6-yl)pyrimidine-2,4(1H,3H)-dione]
3 | 4.42 nM | 21.5 nM | O=c1[nH]cc(-c2cc(N3C[C@@H](Oc4ncc(C(F)(F)F)cn4)C(F)(F)C3)c3nccn3n2)c(=O)[nH]1 [Example 532, (R)-5-(8-(3,3-difluoro-4-((5-(trifluoromethyl)pyrimidin-2-yl)oxy)pyrrolidin-1-yl)imidazo[1,2-b]pyridazin-6-yl)pyrimidine-2,4(1H,3H)-dione]
4 | 0.78 nM | 0.17 nM | CC(C)NC(=O)O[C@H]1CN(c2cc(-c3c[nH]c(=O)[nH]c3=O)nn3ccnc23)CC1(F)F [Example 533, (S)-1-(6-(2,4-dioxo-1,2,3,4-tetrahydropyrimidin-5-yl)imidazo[1,2-b]pyridazin-8-yl)-4,4-difluoropyrrolidin-3-yl isopropylcarbamate]
5 | 9.8 nM | 5.18 nM | CC(C)NC(=O)O[C@@H]1CN(c2cc(-c3c[nH]c(=O)[nH]c3=O)nn3ccnc23)CC1(F)F [Example 534, (R)-1-(6-(2,4-dioxo-1,2,3,4-tetrahydropyrimidin-5-yl)imidazo[1,2-b]pyridazin-8-yl)-4,4-difluoropyrrolidin-3-yl isopropylcarbamate]
6 | 1.63 nM | 0.71 nM | O=C(NCC(F)(F)F)OC1CN(c2cc(-c3c[nH]c(=O)[nH]c3=O)nn3ccnc23)CC1(F)F (stereo not shown) [Example 535, 1-(6-(2,4-dioxo-1,2,3,4-tetrahydropyrimidin-5-yl)imidazo[1,2-b]pyridazin-8-yl)-4,4-difluoropyrrolidin-3-yl (2,2,2-trifluoroethyl)carbamate]
7 | 3.83 nM | 5.05 nM | O=C(OC1CN(c2cc(-c3c[nH]c(=O)[nH]c3=O)nn3ccnc23)CC1(F)F)N1CC(F)(F)C1 (stereo not shown) [Example 536, 1-(6-(2,4-dioxo-1,2,3,4-tetrahydropyrimidin-5-yl)imidazo[1,2-b]pyridazin-8-yl)-4,4-difluoropyrrolidin-3-yl 3,3-difluoroazetidine-1-carboxylate]
8 | 0.42 nM | 2.09 nM | O=c1[nH]cc(-c2cc(N3C[C@H](Oc4ccccn4)C(F)(F)C3)c3nccn3n2)c(=O)[nH]1 [Example 537, (S)-5-(8-(3,3-difluoro-4-(pyridin-2-yloxy)pyrrolidin-1-yl)imidazo[1,2-b]pyridazin-6-yl)pyrimidine-2,4(1H,3H)-dione]
9 | 11.5 nM | 48.9 nM | O=c1[nH]cc(-c2cc(N3C[C@@H](Oc4ccccn4)C(F)(F)C3)c3nccn3n2)c(=O)[nH]1 [Example 538, (R)-5-(8-(3,3-difluoro-4-(pyridin-2-yloxy)pyrrolidin-1-yl)imidazo[1,2-b]pyridazin-6-yl)pyrimidine-2,4(1H,3H)-dione]
10 | 0.55 nM | 36.3 nM | O=C(OCC(F)(F)F)O[C@H]1CN(c2cc(-c3c[nH]c(=O)[nH]c3=O)nn3ccnc23)CC1(F)F [Example 541, (S)-1-(6-(2,4-dioxo-1,2,3,4-tetrahydropyrimidin-5-yl)imidazo[1,2-b]pyridazin-8-yl)-4,4-difluoropyrrolidin-3-yl (2,2,2-trifluoroethyl) carbonate]
11 | 1.43 nM | 17.4 nM | O=C(OCC(F)(F)F)O[C@@H]1CN(c2cc(-c3c[nH]c(=O)[nH]c3=O)nn3ccnc23)CC1(F)F [Example 543, (R)-1-(6-(2,4-dioxo-1,2,3,4-tetrahydropyrimidin-5-yl)imidazo[1,2-b]pyridazin-8-yl)-4,4-difluoropyrrolidin-3-yl (2,2,2-trifluoroethyl) carbonate]
12 | 1.01 nM | 0.13 nM | CC(C)(C)NC(=O)O[C@H]1CN(c2cc(-c3c[nH]c(=O)[nH]c3=O)nn3ccnc23)CC1(F)F [Example 544, (S)-1-(6-(2,4-dioxo-1,2,3,4-tetrahydropyrimidin-5-yl)imidazo[1,2-b]pyridazin-8-yl)-4,4-difluoropyrrolidin-3-yl tert-butylcarbamate]
13 | 0.4 nM | 0.22 nM | O=C(NCC(F)(F)F)O[C@H]1CN(c2cc(-c3c[nH]c(=O)[nH]c3=O)nn3ccnc23)CC1(F)F [Example 545, (S)-1-(6-(2,4-dioxo-1,2,3,4-tetrahydropyrimidin-5-yl)imidazo[1,2-b]pyridazin-8-yl)-4,4-difluoropyrrolidin-3-yl (2,2,2-trifluoroethyl)carbamate]
14 | 1.23 nM | 0.69 nM | C[C@@H](NC(=O)O[C@H]1CN(c2cc(-c3c[nH]c(=O)[nH]c3=O)nn3ccnc23)CC1(F)F)C(F)(F)F [Example 546, (S)-1-(6-(2,4-dioxo-1,2,3,4-tetrahydropyrimidin-5-yl)imidazo[1,2-b]pyridazin-8-yl)-4,4-difluoropyrrolidin-3-yl ((R)-1,1,1-trifluoropropan-2-yl)carbamate]
15 | 0.31 nM | 0.13 nM | C[C@H](NC(=O)O[C@H]1CN(c2cc(-c3c[nH]c(=O)[nH]c3=O)nn3ccnc23)CC1(F)F)C(F)(F)F [Example 547, (S)-1-(6-(2,4-dioxo-1,2,3,4-tetrahydropyrimidin-5-yl)imidazo[1,2-b]pyridazin-8-yl)-4,4-difluoropyrrolidin-3-yl ((S)-1,1,1-trifluoropropan-2-yl)carbamate]
16 | 0.63 nM | 0.13 nM | COC[C@@H](C)NC(=O)O[C@H]1CN(c2cc(-c3c[nH]c(=O)[nH]c3=O)nn3ccnc23)CC1(F)F [Example 548, (S)-1-(6-(2,4-dioxo-1,2,3,4-tetrahydropyrimidin-5-yl)imidazo[1,2-b]pyridazin-8-yl)-4,4-difluoropyrrolidin-3-yl ((R)-1-methoxypropan-2-yl)carbamate]
17 | 0.99 nM | 0.28 nM | COC[C@H](C)NC(=O)O[C@H]1CN(c2cc(-c3c[nH]c(=O)[nH]c3=O)nn3ccnc23)CC1(F)F [Example 549, (S)-1-(6-(2,4-dioxo-1,2,3,4-tetrahydropyrimidin-5-yl)imidazo[1,2-b]pyridazin-8-yl)-4,4-difluoropyrrolidin-3-yl ((S)-1-methoxypropan-2-yl)carbamate]
18 | 1.67 nM | 0.83 nM | CC(NC(=O)O[C@H]1CN(c2cc(-c3c[nH]c(=O)[nH]c3=O)nn3ccnc23)CC1(F)F)C(F)F (stereo partly drawn) [Example 550, (S)-1-(6-(2,4-dioxo-1,2,3,4-tetrahydropyrimidin-5-yl)imidazo[1,2-b]pyridazin-8-yl)-4,4-difluoropyrrolidin-3-yl (1,1-difluoropropan-2-yl)carbamate]
19 | 0.24 nM | 0.13 nM | O=C(NC12CC(C1)C2)O[C@H]1CN(c2cc(-c3c[nH]c(=O)[nH]c3=O)nn3ccnc23)CC1(F)F [Example 551, (S)-1-(6-(2,4-dioxo-1,2,3,4-tetrahydropyrimidin-5-yl)imidazo[1,2-b]pyridazin-8-yl)-4,4-difluoropyrrolidin-3-yl bicyclo[1.1.1]pentan-1-ylcarbamate]
20 | 1.39 nM | 6.89 nM | N#Cc1cc([C@H]2C[C@@H]2c2cc(-c3c[nH]c(=O)[nH]c3=O)nn3ccnc23)ccc1Cl [Example 553, 2-chloro-5-((1S,2S)-2-(6-(2,4-dioxo-1,2,3,4-tetrahydropyrimidin-5-yl)imidazo[1,2-b]pyridazin-8-yl)cyclopropyl)benzonitrile]
21 | 1.57 nM | 12 nM | O=c1[nH]cc(-c2cc([C@H]3C[C@@H]3c3ccc(C(F)(F)F)cc3)c3nccn3n2)c(=O)[nH]1 [Example 554, 5-(8-((1S,2S)-2-(4-(trifluoromethyl)phenyl)cyclopropyl)imidazo[1,2-b]pyridazin-6-yl)pyrimidine-2,4(1H,3H)-dione]
22 | 1.71 nM | 9.73 nM | N#Cc1c(F)cc([C@H]2C[C@@H]2c2cc(-c3c[nH]c(=O)[nH]c3=O)nn3ccnc23)cc1F [Example 557, 4-((1S,2S)-2-(6-(2,4-dioxo-1,2,3,4-tetrahydropyrimidin-5-yl)imidazo[1,2-b]pyridazin-8-yl)cyclopropyl)-2,6-difluorobenzonitrile]
23 | 2.87 nM | 20.4 nM | N#Cc1ccc([C@H]2C[C@@H]2c2cc(-c3c[nH]c(=O)[nH]c3=O)nn3ccnc23)c(F)c1F [Example 558, 4-((1S,2S)-2-(6-(2,4-dioxo-1,2,3,4-tetrahydropyrimidin-5-yl)imidazo[1,2-b]pyridazin-8-yl)cyclopropyl)-2,3-difluorobenzonitrile]
24 | 0.97 nM | 7.77 nM | COc1cc([C@H]2C[C@@H]2c2cc(-c3c[nH]c(=O)[nH]c3=O)nn3ccnc23)ccc1C#N [Example 559, 4-((1S,2S)-2-(6-(2,4-dioxo-1,2,3,4-tetrahydropyrimidin-5-yl)imidazo[1,2-b]pyridazin-8-yl)cyclopropyl)-2-methoxybenzonitrile]
25 | 0.85 nM | 2.86 nM | Cc1cc([C@H]2C[C@@H]2c2cc(-c3c[nH]c(=O)[nH]c3=O)nn3ccnc23)ccc1C#N [Example 560, 4-((1S,2S)-2-(6-(2,4-dioxo-1,2,3,4-tetrahydropyrimidin-5-yl)imidazo[1,2-b]pyridazin-8-yl)cyclopropyl)-2-methylbenzonitrile]
26 | 0.71 nM | 3.06 nM | O=c1[nH]cc(-c2cc([C@H]3C[C@@H]3c3ccc(OC(F)F)cc3)c3nccn3n2)c(=O)[nH]1 [Example 561, 5-(8-((1S,2S)-2-(4-(difluoromethoxy)phenyl)cyclopropyl)imidazo[1,2-b]pyridazin-6-yl)pyrimidine-2,4(1H,3H)-dione]
